What was measured:
DAT = molecular target: T1, DAT (Rattus norvegicus, UniProt P23977); experiment: DAT radioligand binding in rat striatum ([3H]-WIN35,428 competition); conditions: for Ki: rat striatum membranes, [3H]-WIN35,428, mean ± SEM, read-out: DAT (rat striatum) Ki ± SEM; for SERT/DAT: ratio of SERT Ki to DAT Ki
T1 construct: 100 μl of tissue preparation (1.5 mg of brain striatum membranes per well); tissue Bioreclamation IVT (Hicksville, N.Y.); host or cells: male Sprague-Dawley rat brain striatum membranes
T1 sequence (P23977 whole entry): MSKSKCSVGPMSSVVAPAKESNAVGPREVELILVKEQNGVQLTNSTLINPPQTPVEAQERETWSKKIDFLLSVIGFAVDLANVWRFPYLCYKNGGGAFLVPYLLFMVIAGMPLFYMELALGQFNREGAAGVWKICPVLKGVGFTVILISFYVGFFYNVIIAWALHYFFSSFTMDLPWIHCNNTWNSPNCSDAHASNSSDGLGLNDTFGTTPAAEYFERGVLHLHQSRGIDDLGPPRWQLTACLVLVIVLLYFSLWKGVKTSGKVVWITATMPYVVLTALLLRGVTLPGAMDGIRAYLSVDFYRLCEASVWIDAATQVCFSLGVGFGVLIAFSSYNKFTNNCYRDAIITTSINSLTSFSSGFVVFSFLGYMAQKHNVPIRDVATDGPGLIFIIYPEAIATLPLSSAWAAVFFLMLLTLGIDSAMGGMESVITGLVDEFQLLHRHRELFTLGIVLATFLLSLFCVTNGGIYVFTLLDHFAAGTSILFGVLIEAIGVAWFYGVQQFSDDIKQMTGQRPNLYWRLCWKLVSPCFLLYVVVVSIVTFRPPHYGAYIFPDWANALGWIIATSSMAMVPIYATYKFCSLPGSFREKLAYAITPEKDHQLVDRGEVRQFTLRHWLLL
Protocol: (§1) Binding affinities of the analogue compounds were evaluated at the DAT and SERT in rat brain membranes, and sigma-1 in guinea pig brain membranes according to the following protocols.
DAT Radioligand Binding in Rat Striatum
The tissue was centrifuged at 20,000 rpm for 10 min at 4° C. The pellet was suspended in cold buffer and centrifuged again using the same settings. The resulting pellet was resuspended in cold buffer at a concentration of 15 mg/mL OWW (original wet weight). On test day, all test compounds were freshly dissolved in 30% DMSO and 70% H2O to a stock concentration of 1 mM or 100 μM When necessary, to assist the solubilization of compounds, 10 μl of glacial acetic acid was added along with the DMSO (in place of 10 μl final H2O volume). Each test compound was then diluted into 10 half-log serial dilutions using 30% DMSO vehicle. […] Non-specific binding was determined using […] Indatraline and total binding was determined with 30% DMSO vehicle. The reaction was started with the addition of the tissue. […] The filters were washed 3 times with 3 mL (3×1 mL/well) of ice cold binding buffer. […] These analyses were performed using GraphPad Prism version 6.00 for Macintosh (GraphPad Software, San Diego, Calif.).

[1] = Phase I metabolic stability in rat liver microsomes; assay type: in vitro ADME; conditions: for Phase I in Liver Microsomes, Negative Control: rat liver microsomes lacking NADPH; for Phase I in Liver Microsomes, Rat: with NADPH, 10 μM compound, 0.5 mg/mL microsomes; for stability to Phase I metabolism (in words): rat liver microsomes fortified with NADPH
Protocol: Methods: Phase I metabolic stability assays were conducted in rat liver microsomes. For phase I metabolism, the reactions were carried out with 100 mM potassium phosphate buffer, pH 7.4, in the presence of NADPH regenerating system (1.3 mM NADPH, 3.3 mM glucose 6-phosphate, 3.3 mM MgCl2, 0.4 U/mL glucose-6-phosphate dehydrogenase, […] sodium citrate). Reactions in triplicate were initiated by addition of the liver microsomes to the incubation mixture (compound final concentration was 10 μM; 0.5 mg/mL microsomes). Compound disappearance was monitored via LC/MS/MS. […] The total run time for each analyte was 5.0 min.

SERT = molecular target: T2, SERT (Rattus norvegicus, UniProt P31652); experiment: SERT radioligand binding in rat midbrain ([3H]-Citalopram competition); conditions: rat midbrain/brain stem membranes, [3H]-Citalopram, mean ± SEM; read-out: SERT (rat mid-brain-stem) Ki ± SEM
T2 construct: 100 μl of tissue preparation (2 mg of brain stem membranes per well); tissue Bioreclamation IVT (Hicksville, N.Y.); host or cells: male Sprague-Dawley rat brain stem membranes
T2 sequence (P31652 whole entry): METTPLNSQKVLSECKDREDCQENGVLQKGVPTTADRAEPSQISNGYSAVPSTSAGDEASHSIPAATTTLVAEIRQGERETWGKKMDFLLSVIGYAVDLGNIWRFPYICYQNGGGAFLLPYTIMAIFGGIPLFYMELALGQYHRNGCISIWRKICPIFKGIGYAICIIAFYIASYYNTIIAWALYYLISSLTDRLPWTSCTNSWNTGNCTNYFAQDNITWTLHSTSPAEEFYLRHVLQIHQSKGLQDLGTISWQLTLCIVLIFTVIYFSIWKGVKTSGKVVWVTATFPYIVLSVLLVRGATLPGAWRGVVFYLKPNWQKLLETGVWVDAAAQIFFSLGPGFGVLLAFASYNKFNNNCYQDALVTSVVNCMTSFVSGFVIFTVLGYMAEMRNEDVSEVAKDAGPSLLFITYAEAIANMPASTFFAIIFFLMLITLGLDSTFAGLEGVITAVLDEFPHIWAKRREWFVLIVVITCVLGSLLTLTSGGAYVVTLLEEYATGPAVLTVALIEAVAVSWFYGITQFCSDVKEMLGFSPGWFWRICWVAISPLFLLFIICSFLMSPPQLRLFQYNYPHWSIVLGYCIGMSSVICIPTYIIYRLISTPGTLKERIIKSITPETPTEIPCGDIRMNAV
Protocol: as §1
SERT Radioligand Binding in Rat Midbrain
The tissue was centrifuged at 20,000 rpm for 10 min at 4° C. The pellet was suspended in cold buffer and centrifuged again using the same settings. The resulting pellet was resuspended in cold buffer at a concentration of 20 mg/mL OWW (original wet weight). On test day, all test compounds were freshly dissolved in 30% DMSO and 70% H2O to a stock concentration of 1 mM or 100 μM. When necessary, to assist the solubilization of compounds, 10 μl of glacial acetic acid was added along with the DMSO (in place of 10 μl final H2O volume). Each test compound was then diluted into 10 half-log serial dilutions using 30% DMSO vehicle. […] Non-specific binding was determined using […] Fluoxetine HCl and total binding was determined with 30% DMSO vehicle. The reaction was started with the addition of the tissue. All compound dilutions were tested in triplicate and the reaction incubated for 60 min at room temperature. The reaction was terminated by filtration through Perkin Elmer Uni-Filter-96 GF/B, presoaked for 60 min in 0.3% polyethylenimine, using a Brandel 96-Well Plates Harvester Manifold (Brandel Instruments, Gaithersburg, Md.). The filters were washed 3 times with 3 mL (3×1 mL/well) of ice cold binding buffer. […] These analyses were performed using GraphPad Prism version 6.00 for Macintosh (GraphPad Software, San Diego, Calif.).

σ1R = molecular target: T3, σ1R (Cavia porcellus, UniProt Q60492); experiment: σ1R radioligand binding in guinea pig cortex ([3H]-(+)-Pentazocine competition); conditions: for σ1/DAT: ratio of σ1 to DAT affinity values; for σ1/SERT: ratio of σ1 to SERT affinity values
T3 construct: tissue BioReclamation IVT (Hicksville, N.Y.); host or cells: male Hartley guinea pig brain cortex membranes
T3 sequence (Q60492 whole entry): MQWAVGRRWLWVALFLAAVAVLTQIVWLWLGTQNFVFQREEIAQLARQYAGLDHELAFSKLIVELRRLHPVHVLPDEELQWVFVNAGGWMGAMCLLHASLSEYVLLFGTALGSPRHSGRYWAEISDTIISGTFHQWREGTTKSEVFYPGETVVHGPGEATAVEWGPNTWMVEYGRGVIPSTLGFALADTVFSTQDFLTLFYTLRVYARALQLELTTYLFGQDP
Protocol: as §1
σ1R Radioligand Binding in Guinea Pig Cortex
Male Hartley guinea pig cortices were dissected from freshly harvested brains (shipped cold in PBS buffer from BioReclamation IVT (Hicksville, N.Y.)) and frozen at −80° C. for future use. […] The supernatant was collected in a clean tube and the pellet re-suspended in 10 ml of cold buffer and centrifuged again (˜1,200 rpm) for 10 min at 4° C. […] The final pellet was suspended in ice-cold binding buffer at 50 mg/ml concentration. […] All test compounds were freshly dissolved in 30% DMSO and 70% H2O to a stock concentration of 1 mM or 100 μM. When necessary, to assist the solubilization of compounds, 10 μl of glacial acetic acid was added along with the DMSO (in place of 10 μl final H2O volume). Each test compound was then diluted into 10 half-log serial dilutions using 30% DMSO as the vehicle. […] Nonspecific binding was determined using either 10 μM PRE084 or 10 μM (+)-Pentazocine and total binding was determined with 30% DMSO vehicle (3% DMSO final concentration). […] The filters were washed 3 times with 3 ml (3×1 ml/well) of ice cold binding buffer.

C[C@@H]1CN(CCSC(c2ccc(F)cc2)c2ccc(F)cc2)C[C@H](C)N1CC(O)Cc1ccccc1 (stereo partly drawn) [RDS03-095, 1-((2S,6R)-4-(2-((bis(4-fluorophenyl)methyl)thio)ethyl)-2,6-dimethylpiperazin-1-yl)-3-phenylpropan-2-ol]
Ki (DAT): 2 ± 0.15 nM | SERT/DAT (DAT): 800.00 | Phase I in Liver Microsomes, Negative Control ([1]; 0 min): 100% | Phase I in Liver Microsomes, Rat ([1]; 0 min): 100% | Phase I in Liver Microsomes, Negative Control ([1]; 30 min): 117% | Phase I in Liver Microsomes, Rat ([1]; 30 min): 42% | Phase I in Liver Microsomes, Negative Control ([1]; 60 min): 125% | Phase I in Liver Microsomes, Rat ([1]; 60 min): 10% | stability to Phase I metabolism (in words) [1]: susceptibility | Ki (SERT): 1600 ± 152 nM | σ1/DAT (σ1R): 7.60 | σ1/SERT (σ1R): 0.010

OC(CN1CCC2(CCN(CCSC(c3ccc(F)cc3)c3ccc(F)cc3)CC2)C1)c1ccccc1 (stereo not shown) [RDS04-002]
Ki (DAT): 125 ± 9.7 nM | SERT/DAT (DAT): 0.99 | Phase I in Liver Microsomes, Negative Control ([1]; 0 min): 100% | Phase I in Liver Microsomes, Rat ([1]; 0 min): 100% | Phase I in Liver Microsomes, Negative Control ([1]; 30 min): 128% | Phase I in Liver Microsomes, Rat ([1]; 30 min): 100% | Phase I in Liver Microsomes, Negative Control ([1]; 60 min): 125% | Phase I in Liver Microsomes, Rat ([1]; 60 min): 100% | Ki (SERT): 124 ± 38.2 nM | σ1/DAT (σ1R): 0.36 | σ1/SERT (σ1R): 0.37

CC(O)CN1[C@H](C)CN(CC[S+]([O-])C(c2ccc(F)cc2)c2ccc(F)cc2)C[C@@H]1C (stereo partly drawn) [RDS04-010, 1-((2S,6R)-4-(2-((Bis(4-fluorophenyl)methyl)sulfinyl)ethyl)-2,6-dimethylpiperazin-1-yl)propan-2-ol]
Ki (DAT): 245 ± 49.7 nM | SERT/DAT (DAT): 77.55 | Phase I in Liver Microsomes, Negative Control ([1]; 0 min): 100% | Phase I in Liver Microsomes, Rat ([1]; 0 min): 100% | Phase I in Liver Microsomes, Negative Control ([1]; 30 min): 130% | Phase I in Liver Microsomes, Rat ([1]; 30 min): 115% | Phase I in Liver Microsomes, Negative Control ([1]; 60 min): 108% | Phase I in Liver Microsomes, Rat ([1]; 60 min): 95% | Ki (SERT): 19000 ± 2550 nM | σ1/DAT (σ1R): 1.29 | σ1/SERT (σ1R): 0.017

C[C@@H]1CN(CC[S+]([O-])C(c2ccc(F)cc2)c2ccc(F)cc2)C[C@H](C)N1CC(O)Cc1ccccc1 (stereo partly drawn) [RDS04-011, 1-((2S,6R)-4-(2-((Bis(4-fluorophenyl)methyl)sulfinyl)ethyl)-2,6-dimethylpiperazin-1-yl)-3-phenylpropan-2-ol]
Ki (DAT): 6.78 ± 2.97 nM | SERT/DAT (DAT): 377.58 | Phase I in Liver Microsomes, Negative Control ([1]; 0 min): 100% | Phase I in Liver Microsomes, Rat ([1]; 0 min): 100% | Phase I in Liver Microsomes, Negative Control ([1]; 30 min): 132% | Phase I in Liver Microsomes, Rat ([1]; 30 min): 58% | Phase I in Liver Microsomes, Negative Control ([1]; 60 min): 106% | Phase I in Liver Microsomes, Rat ([1]; 60 min): 26% | stability to Phase I metabolism (in words) [1]: susceptibility | Ki (SERT): 2560 ± 181 nM | σ1/DAT (σ1R): 11.12 | σ1/SERT (σ1R): 0.029

From patent US11365195B2, “Atypical inhibitors of monoamine transporters; method of making; and use thereof” (THE UNITED STATES OF AMERICA, AS REPRESENTED BY THE …, priority 2017, dated 2022)
